In PubChem BioAssay (NCI) one finds GI50 and TGI data, which are given here for ten molecules.

Each structure is given as a SMILES string. Where “and” joins values, the source holds several entries; their conditions need not be identical. Equal values may be shown once.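 Growth conditions: 96-well plates. Treatment: test compound, 48 hours, 5 concentrations. Analysis: linear interpolation between bracketing concentrations; unreached endpoints set to highest concentration. GI50 marks 50% less growth. Definition used: TGI = concentration required for complete inhibition of growth.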

Some test systems named below: HOP-62 NSCLC; SNB-19 CNS; MOLT-4 leukemia; CCRF-CEM leukemia; KM12 colon; K-562 leukemia; CAKI-1 renal; SK-MEL-28 melanoma; SK-MEL-5 melanoma; A549 NSCLC.
Experiment in all cases: NCI tumour cell line growth inhibition, 48 h

For `C=C(C)[C@@H]1CC[C@]2(C#N)CC[C@]3(C)[C@H](CC[C@@H]4[C@@]5(C)CCCNC(C)(C)[C@@H]5CC[C@]43C)[C@@H]12`, the GI50 in the test with HOP-62 NSCLC is 1.65 µM; in the test with SNB-19 CNS, 2.29 µM; with MOLT-4 leukemia, 2.14 µM; in the test with CCRF-CEM leukemia, 2.73 µM; in the test with KM12 colon it was 1.66 µM; in the test on K-562 leukemia, 2.09 µM. In addition, the GI50 with CAKI-1 renal was 3.2 µM; in the test on SK-MEL-28 melanoma, 1.92 µM; with SK-MEL-5 melanoma it was 1.71 µM; in the test on A549 NSCLC, 1.94 µM. The TGI in the test on HOP-62 NSCLC worked out at 3.29 µM; with SNB-19 CNS, 4.69 µM; in the test with MOLT-4 leukemia, 5.57 µM; in the test with CCRF-CEM leukemia it was 9.38 µM; in the test on KM12 colon it was 3.23 µM; in the test with K-562 leukemia, 10.5 µM. Moreover, the TGI in the test with CAKI-1 renal was determined as 11.5 µM; in the test with SK-MEL-28 melanoma it was 3.5 µM; in the test with SK-MEL-5 melanoma, 3.08 µM; in the test on A549 NSCLC, 3.77 µM.
For `COc1ccc(CNc2cnc3cc(N)ccc3n2)cc1OC`, the TGI with HOP-62 NSCLC, in the test with SNB-19 CNS, in the test with MOLT-4 leukemia, with CCRF-CEM leukemia, in the test with KM12 colon and in the test with K-562 leukemia was above 100 µM each time. The TGI in the test on CAKI-1 renal, in the test with SK-MEL-28 melanoma, in the test on SK-MEL-5 melanoma and with A549 NSCLC was above 100 µM throughout.
Take `COc1ccccc1OCC(COC(=O)Nc1ccc(C)cc1)OC(=O)Nc1ccc(C)cc1` (stereo not given): the TGI was above 100 µM with HOP-62 NSCLC; 46.7 µM with SNB-19 CNS; 48.8 µM in the test on MOLT-4 leukemia; 45.3 µM in the test with CCRF-CEM leukemia; 43.4 µM in the test on KM12 colon; 45.5 µM in the test with K-562 leukemia. Besides, the TGI in the test on CAKI-1 renal is 34.3 µM; with SK-MEL-28 melanoma, 60.8 µM; with SK-MEL-5 melanoma it was 47.7 µM; in the test with A549 NSCLC, above 100 µM.
`CCOC(=O)c1cc2cc([N+](=O)[O-])ccc2oc1=O`: the TGI with HOP-62 NSCLC, with SNB-19 CNS, in the test with MOLT-4 leukemia, with CCRF-CEM leukemia, in the test on KM12 colon and in the test with K-562 leukemia was above 100 µM each time. Further, the TGI with CAKI-1 renal, in the test on SK-MEL-28 melanoma, in the test on SK-MEL-5 melanoma and with A549 NSCLC was above 100 µM throughout.
As for `O=C(N/N=C\c1cc(Cl)ccc1O)N/N=C/c1cc(Cl)ccc1O`, the GI50 is 2.49 µM in the test with HOP-62 NSCLC; above 100 µM in the test on SNB-19 CNS; 57.5 µM in the test on MOLT-4 leukemia; 2.51 µM in the test on CCRF-CEM leukemia; 13.1 µM in the test on KM12 colon; 0.572 µM in the test on K-562 leukemia. For the same molecule, the GI50 was 3.36 µM with CAKI-1 renal, above 100 µM with SK-MEL-28 melanoma, 6.41 µM with SK-MEL-5 melanoma and 0.521 µM with A549 NSCLC. Further, the TGI in the test on HOP-62 NSCLC, in the test on SNB-19 CNS, with MOLT-4 leukemia, with CCRF-CEM leukemia, with KM12 colon and with K-562 leukemia was above 100 µM in each case. Besides, the TGI in the test with CAKI-1 renal, in the test with SK-MEL-28 melanoma, in the test on SK-MEL-5 melanoma and in the test on A549 NSCLC was above 100 µM in each case.
As to `CC1=NN(C(=O)Cc2ccccc2)C(=O)/C1=C\c1cccc(O)c1`, the TGI in the test with HOP-62 NSCLC, in the test with SNB-19 CNS, with MOLT-4 leukemia, in the test with CCRF-CEM leukemia, in the test with KM12 colon and in the test on K-562 leukemia was above 100 µM throughout. Besides, the TGI in the test with CAKI-1 renal, in the test on SK-MEL-28 melanoma, in the test on SK-MEL-5 melanoma and in the test with A549 NSCLC was above 100 µM throughout.
For the molecule `Cc1ccc(NC(=O)CCC(=O)C(C#N)c2ccc(Cl)cc2)cc1C` (stereo not given), the TGI in the test with HOP-62 NSCLC, in the test with SNB-19 CNS, in the test on MOLT-4 leukemia, in the test on CCRF-CEM leukemia, in the test on KM12 colon and in the test on K-562 leukemia was above 100 µM throughout. The TGI in the test with CAKI-1 renal, in the test on SK-MEL-28 melanoma, with SK-MEL-5 melanoma and in the test on A549 NSCLC was above 100 µM each time.
Take `COS(=O)CCOC(=O)c1ccccc1SSc1ccccc1C(=O)OCCS(=O)OC` (stereo not given): the TGI was above 100 µM in the test with HOP-62 NSCLC; above 100 µM in the test with SNB-19 CNS; 22.8 µM in the test on MOLT-4 leukemia; above 100 µM in the test on CCRF-CEM leukemia; above 100 µM in the test with KM12 colon; 69.6 µM with K-562 leukemia. The TGI was 73.1 µM in the test on CAKI-1 renal, above 100 µM in the test with SK-MEL-28 melanoma, above 100 µM in the test on SK-MEL-5 melanoma and above 100 µM with A549 NSCLC.
In the case of `O=c1c2c(=NCCCN3CCCC3)cc3c(=O)n(CCCN4CCCC4)c(=O)c4c(NCCCN5CCCC5)cc(c(O)n1CCCN1CCCC1)c2c4-3`, the GI50 in the test on HOP-62 NSCLC was 1.42 µM; in the test with SNB-19 CNS, 2.11 µM; in the test with MOLT-4 leukemia, 6.63 µM; with CCRF-CEM leukemia, 5.22 µM; in the test on KM12 colon, 3.27 µM; in the test with K-562 leukemia, 3.36 µM. Also, the GI50 in the test on CAKI-1 renal is 10.6 µM; in the test on SK-MEL-28 melanoma it was 2.53 µM; in the test on SK-MEL-5 melanoma, 2.67 µM; in the test with A549 NSCLC, 1.45 µM. The TGI is 4.54 µM in the test with HOP-62 NSCLC; 10.6 µM in the test on SNB-19 CNS; above 100 µM in the test with MOLT-4 leukemia; 71 µM in the test with CCRF-CEM leukemia; 12.7 µM in the test with KM12 colon; above 100 µM with K-562 leukemia. In addition, the TGI came out at 42 µM in the test on CAKI-1 renal, 5.31 µM with SK-MEL-28 melanoma, 7.17 µM in the test with SK-MEL-5 melanoma and 3.84 µM in the test with A549 NSCLC.
For the molecule `O=C(O)C(O)C(O)C1[O][Sb][O]C1CO` (stereo not given), the GI50 in the test with HOP-62 NSCLC is above 100 µM; in the test with SNB-19 CNS it was above 100 µM; in the test with MOLT-4 leukemia, above 100 µM; in the test on CCRF-CEM leukemia it was 33.3 µM and 18.9 µM; in the test with KM12 colon it was above 100 µM; with K-562 leukemia it was above 100 µM. In addition, the GI50 is above 100 µM with CAKI-1 renal; > 100 µM and 13.7 µM in the test on SK-MEL-28 melanoma; 27.2 µM and 12.7 µM with SK-MEL-5 melanoma; above 100 µM in the test on A549 NSCLC. For the same molecule, the TGI in the test with HOP-62 NSCLC, with SNB-19 CNS, with MOLT-4 leukemia, in the test with CCRF-CEM leukemia, with KM12 colon and with K-562 leukemia was above 100 µM in each case. Moreover, the TGI in the test with CAKI-1 renal is above 100 µM; in the test on SK-MEL-28 melanoma it was > 100 µM and 43.4 µM; in the test on SK-MEL-5 melanoma, > 100 µM and 30.7 µM; in the test on A549 NSCLC it was above 100 µM.
